What was measured:
[1] = test system: rice; test: Test B pre-/postemergence herbicide test; type: in vivo, Oryza sativa
Method in brief: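 Response was scored visually 13 to 15 days after treatment against untreated greenhouse controls, 0 meaning no effect and 100 complete control. Formulations (solvent mixture plus surfactant) went onto soil after planting, onto foliage of 1- to 4-leaf plants, and onto 2-leaf plants in a flooded paddy set including rice and barnyardgrass.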

[2] = test system: large crabgrass; test: Test C pre-/postemergence herbicide test; type: in vivo, Digitaria sanguinalis; settings: for Crabgrass, Large plant response rating: Preemergence, scale 0 to 100, 0 no effect, 100 complete control
Method in brief: (§1)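 Preemergence: seeds planted and treated with compound in non-phytotoxic solvent with surfactant; postemergence: plants at 2 to 18 cm (1- to 4-leaf stage) sprayed likewise. Kept in greenhouse 12 to 14 days, then visually rated against controls, 0 (no effect) to 100 (complete control).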

[3] = test system: goosegrass; test: Test C pre-/postemergence herbicide test; type: in vivo, Eleusine indica; settings: for Goosegrass plant response rating: Preemergence, scale 0 to 100, 0 no effect, 100 complete control
Method in brief: as §1

[4] = test system: kochia; test: Test C pre-/postemergence herbicide test; type: in vivo, Kochia scoparia; settings: for Kochia plant response rating: Preemergence, scale 0 to 100, 0 no effect, 100 complete control
Method in brief: as §1

[5] = test system: pigweed; test: Test C pre-/postemergence herbicide test; type: in vivo, Amaranthus retroflexus; settings: for Pigweed plant response rating: Preemergence, scale 0 to 100, 0 no effect, 100 complete control
Method in brief: as §1

[6] = test system: common ragweed; test: Test C pre-/postemergence herbicide test; type: in vivo, Ambrosia elatior; parameters: key to Plant response rating, Ragweed: 0 = no effect, 100 = complete control; settings: for Ragweed plant response rating: Preemergence, scale 0 to 100, 0 no effect, 100 complete control
Method in brief: as §1

[7] = test system: velvetleaf; test: Test C pre-/postemergence herbicide test; type: in vivo, Abutilon theophrasti; settings: for Velvetleaf plant response rating: Preemergence, scale 0 to 100, 0 no effect, 100 complete control
Method in brief: as §1

[8] = test system: barnyardgrass; test: Test C flooded paddy test; type: in vivo, Echinochloa crus-galli; settings: for Plant response rating, Barnyardgrass: 500 g ai/ha, visual rating after 12 to 14 days
Method in brief: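 Postemergence sprays were applied to plants 2 to 18 cm tall (1- to 4-leaf stage); in the flooded paddy test, barnyardgrass was grown to the 2-leaf stage. After 12 to 14 days in a greenhouse, injury was visually rated against untreated controls on a 0–100 scale (100 = complete control).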

[9] = preemergence, 125 g ai/ha, 0 to 100 scale, 0 is no effect, 100 is complete control
[10] = 125 g ai/ha, scale 0 (no effect) to 100 (complete control), visual, 12 to 14 days, preemergence
[11] = 250 g ai/ha, scale 0 to 100 (0 no effect, 100 complete control), visual, 12 to 14 days, preemergence
[12] = 62 g ai/ha, scale 0 to 100 (0 no effect, 100 complete control)
[13] = 125 g ai/ha, scale of 0 to 100, 0 is no effect, 100 is complete control
[14] = 62 g ai/ha, preemergence, scale 0 to 100
[15] = 250 g ai/ha, scale 0-100, preemergence
[16] = 500 g ai/ha, scale 0 to 100 (0 no effect, 100 complete control), visual, 12 to 14 days, preemergence
[17] = 250 g ai/ha, scale of 0 to 100, 0 is no effect, 100 is complete control
[18] = scale 0 to 100 (0 no effect, 100 complete control)

Row | Structure (SMILES) | Plant response rating, Rice [1, 9] | Plant response rating, Crabgrass, Large [2, 10] | Plant response rating, Crabgrass, Large [2, 11] | Crabgrass, Large plant response rating ([2]; 500 g ai/ha) | Plant response rating, Goosegrass [3, 10] | Goosegrass plant response rating ([3]; 500 g ai/ha) | Plant response rating, Kochia [4, 10] | Kochia plant response rating ([4]; 500 g ai/ha) | Plant response rating, Pigweed [5, 10] | Pigweed plant response rating ([5]; 500 g ai/ha) | Plant response rating, Ragweed [6, 10] | Ragweed plant response rating ([6]; 500 g ai/ha) | Plant response rating, Velvetleaf [7, 10] | Velvetleaf plant response rating ([7]; 500 g ai/ha) | Barnyardgrass plant response rating [8, 12] | Barnyardgrass plant response rating [8, 13] | Plant response rating, Crabgrass, Large [2, 14] | Plant response rating, Goosegrass [3, 14] | Plant response rating, Kochia [4, 14] | Plant response rating, Pigweed [5, 14] | other results
1 | CCN(C)C(=O)c1cccc(NC(=O)c2cc(C(C)(C)C)nn2CC)c1 [Compound 48] | 10 | 30 | 70 | 90 | 70 | 90 | 60 | 100 | 100 | 100 | 5 | 100 | 0 | 70 | 0 | 0 |  |  |  |  | Rice plant response rating ([1]; Preemergence, 500 g ai/ha, scale 0 to 100): 60; Plant response rating (0 = no effect, 100 = complete control), Crabgrass, Large ([2]; 62 g ai/ha, preemergence): 0; Plant response rating (0 = no effect, 100 = complete control), Goosegrass ([3]; 62 g ai/ha, preemergence): 20; Plant response rating, Goosegrass [3, 11]: 90; Plant response rating (0 = no effect, 100 = complete control), Kochia ([4]; 62 g ai/ha, preemergence): 10; Plant response rating, Kochia [4, 11]: 80; Plant response rating (0 = no effect, 100 = complete control), Pigweed ([5]; 62 g ai/ha, preemergence): 100; Plant response rating, Pigweed [5, 11]: 100; Plant response rating (0 = no effect, 100 = complete control), Ragweed ([6]; 62 g ai/ha, preemergence): 0; Plant response rating, Ragweed [6, 11]: 70; Plant response rating (0 = no effect, 100 = complete control), Velvetleaf ([7]; 62 g ai/ha, preemergence): 0; Plant response rating, Velvetleaf [7, 11]: 10; Barnyardgrass plant response rating ([8]; 16 g ai/ha, scale 0 to 100): 0; Barnyardgrass plant response rating ([8]; 31 g ai/ha, scale 0 to 100): 0
2 | CCc1nn(C(C)(C)C)cc1C(=O)Nc1cc(C(=O)N(C)C)ccn1 [Compound 293] |  | 95 |  |  | 85 |  | 100 |  | 85 |  |  |  |  |  | 0 |  | 95 | 65 | 100 | 20 | Rice plant response rating (0 to 100 scale) ([1]; 125 g ai/ha, 0 = no effect, 100 = complete control, preemergence): 90; Plant response rating, Rice ([1]; 500 g ai/ha, visual rating, 0 = no effect, 100 = complete control, preemergence): 100; Plant response rating, Crabgrass, Large [2, 15]: 100; Plant response rating, Crabgrass, Large [2, 16]: 100; Plant response rating, Goosegrass [3, 15]: 95; Plant response rating, Goosegrass [3, 16]: 100; Plant response rating, Kochia [4, 15]: 100; Plant response rating, Kochia [4, 16]: 100; Plant response rating, Pigweed [5, 15]: 95; Plant response rating, Pigweed [5, 16]: 100; Plant response rating, Ragweed [6, 14]: 85; Plant response rating, Ragweed [6, 15]: 100; Plant response rating, Ragweed [6, 16]: 100; Plant response rating, Velvetleaf [7, 14]: 80; Plant response rating, Velvetleaf [7, 15]: 100; Plant response rating, Velvetleaf [7, 16]: 100; Barnyardgrass plant response rating ([8]; 125 g ai/ha, scale 0 to 100 (0 no effect, 100 complete control)): 20; Barnyardgrass plant response rating [8, 17]: 70; Plant response rating, Barnyardgrass [8, 18]: 80
3 | CCn1nc(C(C)(C)C)cc1C(=O)Nc1cccc(C(N)=O)n1 [Compound 162, 6-[[[3-(1,1-dimethylethyl)-1-ethyl-1H-pyrazol-5-yl]carbonyl]amino]-2-pyridinecarboxamide] | 90 | 40 | 80 | 100 | 60 | 80 | 75 | 100 | 100 | 100 | 95 | 100 | 75 | 100 | 45 | 65 | 35 | 60 | 65 | 100 | Plant response rating, Rice ([1]; 500 g ai/ha, visual rating 0-100, 0 no effect, 100 complete control, preemergence): 90; Plant response rating, Ragweed [6, 14]: 95; Plant response rating, Velvetleaf [7, 14]: 70; Barnyardgrass plant response rating [8, 17]: 75; Plant response rating, Barnyardgrass [8, 18]: 90
